Assay results taken from patent publication US20080026996A1, “Selective Vpac2 Receptor Reptide Agonists” (ELI LILLY AND COMPANY, priority 2004, published 2008).
Where two headings read alike, the source gives them in different places. Where a SMILES comes first, the peptide text is derived from it. Where no end group is shown, it is not given here. [ ]: non-standard residue; d: D form. The star is where a group is joined. Hexanoyl = CCCCCC(=O)*; Aib = CC(C)(N)C(=O)O

Assays:
[1] = target: T1, rat VPAC2 receptor (Rattus norvegicus, UniProt P35000); test: Adenylate cyclase activation on membrane preparations expressing rat VPAC2 receptor; assay type: biochemical; design: expressed in transfected cells; host or cells: CHO cells, crude membranes; details: for VPAC2 cAMP max: maximal increase in cyclic AMP production (over basal) per minute and per mg protein; for VPAC1/VPAC2 ratio of EC50: rat receptors
T1 sequence (P35000 23-437): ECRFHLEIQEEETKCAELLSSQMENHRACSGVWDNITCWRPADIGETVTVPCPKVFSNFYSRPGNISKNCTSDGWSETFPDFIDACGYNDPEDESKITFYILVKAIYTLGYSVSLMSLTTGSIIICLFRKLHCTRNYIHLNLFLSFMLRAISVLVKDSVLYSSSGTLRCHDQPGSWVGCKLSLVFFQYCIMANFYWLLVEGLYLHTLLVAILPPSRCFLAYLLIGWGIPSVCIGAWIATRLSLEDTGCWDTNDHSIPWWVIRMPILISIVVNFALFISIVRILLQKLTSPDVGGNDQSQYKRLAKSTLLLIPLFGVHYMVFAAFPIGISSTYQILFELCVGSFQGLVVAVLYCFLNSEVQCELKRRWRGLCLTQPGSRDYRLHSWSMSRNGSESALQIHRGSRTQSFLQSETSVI
Description: (§1) All studies are performed on crude membranes prepared from three different cell cultures expressing the different recombinant receptors, using methodology that is known in the literature. Duplicate values are obtained for each assay.
(§2) The selectivity of the VPAC2 receptor peptide agonists of the present invention are tested on the rat VPAC1 and VPAC2 receptors recombinantly expressed in CHO cells. The compound of the invention were evaluated in receptor binding & adenylate cyclase activation assays.
(§3) Dose-effect curves of adenylate cyclase activation were generated using the VPAC2 receptor peptide agonists (10^−11 to 10^−6 M, two concentrations per log) of the present invention.

[2] = target: T1, rat VPAC2 receptor; test: Competition binding on recombinant rat VPAC2 receptor expressed in CHO cells, 125I-RO 25-1553 tracer; design: expressed in transfected cells; host or cells: CHO cells, crude membranes; details: for VPAC1/VPAC2 ratio between the IC50 values (index of selectivity): rat receptors, binding
Description: (§4) The peptide samples are stored frozen and thawed prior to the assay. […] All peptide sample and reference compound dilutions are performed in PBS. Peptides solutions are kept in the cold room for four days. Stock solutions are stored at −80° C. New dilution curves are prepared every week.
(§5) Each assay is done in duplicate and performed on two different membrane preparations.

[3] = in vivo; details: Wistar, rat, iv
Description: (§6) An IVGTT with glucose is given immediately after T=0 to 6 animals per condition. Samples are taken at 0, 2, 4, 6, and 10 minutes after injection.
(§7) For cell handling, Plate 50,000 cells/well and keep in culture over night. Wash cell twice in PBS and add 50 μl/well stimulation medium consisting of PBS+1.2 MgCl2, 1.3 CaCl2, 2 glucose and 0.5 IBMX. Incubate 15 minutes and add 50 μl/well of the plasma samples (see layout below). Incubate 30 minutes, remove the supernatant and proceed as normal with the DiscoveRx assay. Prepare plates in duplicate. Protease and peptidase inhibitor are present in all plasma samples.

[4] = target: T2, rat VPAC1 receptor (Rattus norvegicus, UniProt P30083); test: Competition binding on recombinant rat VPAC1 receptor expressed in CHO cells, 125I-VIP tracer; design: expressed in transfected cells; host or cells: CHO cells, crude membranes
T2 sequence (P30083 31-459): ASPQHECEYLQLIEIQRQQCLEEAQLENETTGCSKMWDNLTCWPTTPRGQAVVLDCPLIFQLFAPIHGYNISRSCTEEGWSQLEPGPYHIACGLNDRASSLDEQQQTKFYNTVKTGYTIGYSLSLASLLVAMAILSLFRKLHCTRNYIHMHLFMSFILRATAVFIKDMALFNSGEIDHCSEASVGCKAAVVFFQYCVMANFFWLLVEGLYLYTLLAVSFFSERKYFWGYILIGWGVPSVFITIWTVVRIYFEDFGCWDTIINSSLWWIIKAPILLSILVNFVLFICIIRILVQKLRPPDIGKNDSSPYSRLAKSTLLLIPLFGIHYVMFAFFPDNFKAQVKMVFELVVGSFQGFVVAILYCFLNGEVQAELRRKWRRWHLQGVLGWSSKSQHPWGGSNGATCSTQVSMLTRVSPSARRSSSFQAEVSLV
Description: as §4, §5

[5] = rat, in vivo, iv; for Exposure (10 μg/kg, Vdist in μg/(nM * kg)): 10 ug/kg
Description: as §6, §7

[6] = target: T2, rat VPAC1 receptor; test: Adenylate cyclase activation on membrane preparations expressing rat VPAC1 receptor; assay type: biochemical; design: expressed in transfected cells; host or cells: CHO cells, crude membranes; details: for VPAC1 cAMP max: maximal increase in cyclic AMP production (over basal) per minute and per mg protein
Description: as §1, §2, §3
Adenylate cyclase activity was determined by the procedure of Salomon et al. (1974), A highly sensitive adenylate cyclase assay. Analytical Biochemistry 58 (1974. Membrane proteins ([…]) are incubated in a total volume of […] containing 0.5 mM [^32P]-ATP, 10 µM GTP, 5 mM MgCl2, 0.5 mM EGTA, 1 mM cAMP, 1 mM theophylline, 10 mM phospho(enol)pyruvate, […] pyruvate kinase and 30 mM Tris-HCl at a final pH of 7.8. The reaction is initiated by membrane addition and is terminated after 15 min incubation at 37° C. by addition of 0.5 ml of 0.5% sodium dodecyl-sulfate solution containing 0.5 mM ATP, 0.5 mM cAMP and […] [^3H]-cAMP. cAMP was separated from ATP by two successive chromatographies on Dowex 50Wx8 and neutral alumina.

[7] = target: T1, rat VPAC2 receptor; test: DiscoveRx in vitro potency, CHO-PO cells transiently transfected with rat VPAC 2 receptor DNA; assay type: cell-based; design: expressed in transfected cells; host or cells: CHO-PO, transient
Description: Also, the cells are washed twice. […] The stimuli are present for 30 minutes. Then, the assay buffer is gently removed.

[8] = target: T3, rat PAC1 receptor (Rattus norvegicus, UniProt P32215); test: Binding on recombinant rat PAC1 receptor expressed in CHO cells; details: maximal concentration tested 10 μM peptide
T3 construct: expressed in transfected cells; host or cells: CHO cells, crude membranes
T3 sequence (P32215 20-523): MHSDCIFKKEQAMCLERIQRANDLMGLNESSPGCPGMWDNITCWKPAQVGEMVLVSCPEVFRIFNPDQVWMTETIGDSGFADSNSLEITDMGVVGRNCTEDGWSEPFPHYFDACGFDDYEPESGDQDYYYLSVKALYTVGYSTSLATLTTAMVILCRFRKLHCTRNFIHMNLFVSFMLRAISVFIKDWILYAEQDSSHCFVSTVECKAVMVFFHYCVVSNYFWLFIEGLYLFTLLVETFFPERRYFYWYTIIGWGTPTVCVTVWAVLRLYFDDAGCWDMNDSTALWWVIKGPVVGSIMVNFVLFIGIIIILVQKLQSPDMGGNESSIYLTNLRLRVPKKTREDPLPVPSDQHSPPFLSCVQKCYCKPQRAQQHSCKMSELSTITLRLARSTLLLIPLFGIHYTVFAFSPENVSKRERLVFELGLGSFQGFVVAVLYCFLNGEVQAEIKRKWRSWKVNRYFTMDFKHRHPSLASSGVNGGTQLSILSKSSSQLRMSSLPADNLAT
Description: as §1

[9] = adenylate cyclase activation, rat VPAC2 membranes, with standard error, read-out: VPAC2 EC50 (log M) (converted)
[10] = IC50 of tracer inhibition, 125I-RO 25-1553, with standard error, read-out: RAT VPAC2 IC50 (log M) (converted)
[11] = IC50 of tracer inhibition, 125I-VIP, with standard error, read-out: RAT VPAC1 IC50 (log M) (converted)
[12] = adenylate cyclase activation, rat VPAC1 membranes, with standard error, read-out: VPAC1 EC50 (log M) (converted)

Row | Compound | EC50 [1, 9] | VPAC2 cAMP max [1] | VPAC1/VPAC2 ratio of EC50 ([1]; adenylate cyclase activation) | IC50 [2, 10] | VPAC1/VPAC2 ratio between the IC50 values (index of selectivity) [2] | AUC(0-t) ([3]; 10 ug/kg) | Cmax ([3]; 10 ug/kg) | half-life ([3]; 10 ug/kg) | IC50 [4, 11] | Exposure (10 μg/kg, Vdist in μg/(nM * kg)) [5] | EC50 [6, 12] | VPAC1 cAMP max [6] | EC50 [7] | binding (tracer displacement) [8] | further results
1 | CCCCCC(=O)N[C@@H](Cc1c[nH]cn1)C(=O)N[C@@H](CO)C(=O)N[C@@H](CC(=O)O)C(=O)N[C@@H](C)C(=O)N[C@H](C(=O)N[C@@H](Cc1ccccc1)C(=O)N[C@H](C(=O)N[C@@H](CC(=O)O)C(=O)N[C@@H](CC(N)=O)C(=O)N[C@@H](Cc1ccc(O)cc1)C(=O)N[C@H](C(=O)N[C@@H](CCCNC(=N)N)C(=O)N[C@@H](CC(C)C)C(=O)N[C@@H](CCCNC(=N)N)C(=O)NC(C)(C)C(=O)N[C@@H](CCC(N)=O)C(=O)N[C@@H](CC(C)C)C(=O)N[C@@H](C)C(=O)N[C@@H](C)C(=O)NC(C)(C)C(=O)N[C@@H](CCCCN)C(=O)N[C@@H](Cc1ccc(O)cc1)C(=O)N[C@@H](CC(C)C)C(=O)N[C@@H](CCC(N)=O)C(=O)N[C@@H](CO)C(=O)N[C@H](C(=O)N[C@@H](CCCCN)C(=O)N[C@@H](CC(N)=O)C(=O)N[C@@H](CCCCN)C(=O)NCC(=O)NCC(=O)N1CCC[C@H]1C(=O)N[C@@H](CO)C(=O)N[C@@H](CO)C(=O)NCC(=O)N[C@@H](C)C(=O)N1CCC[C@H]1C(=O)N1CCC[C@H]1C(=O)N1CCC[C@H]1C(=O)N[C@@H](CO)C(=O)O)[C@@H](C)CC)[C@@H](C)O)[C@@H](C)O)C(C)C [Agonist P292] (Hexanoyl-HSDAVFTDNYTRLR[Aib]QLAA[Aib]KYLQSIKNKGGPSSGAPPPS-OH; C-terminus assumed) | 0.115 nM | 79.1 | 100 | 0.759 nM | 269 | 0.688 nM·h | 5.37 nM | 5.5 min | 204 nM | 1.9 µg/nM/kg | 11.5 nM | 124 | 0.07 nM |  | AUC(0-t) ([3]; 0.5 ug/kg): 0.0167 nM·h; Cmax ([3]; 0.5 ug/kg): 0.12 nM; half-life ([3]; 0.5 ug/kg): 15 min; Exposure (0.5 μg/kg, Vdist in μg/(nM * kg)) ([5]; 0.5 ug/kg): 9.5 µg/nM/kg
2 | Hexanoyl-HSDAVFTDNYTRLR[Aib]QVAA[Aib]KYLQSIKNKRYGGPSSGAPPPS [Agonist P261] | 0.0631 nM | 78.5 | 200 | 0.355 nM | 363 | 0.898 nM·h | 12.1 nM | 3.2 min | 129 nM | 0.8 µg/nM/kg | 12.6 nM | 126 | 0.04 nM |  | 
3 | Hexanoyl-HSDAVFTDNYTRLRKQVAAKKYLQSIKNKRYGGPSSGAPPPS [Agonist P31] | 0.145 nM | 134 ± 12 | 174 | 0.385 nM | 546 | 0.308 nM·h | 4.37 nM | 12 min | 210 nM | 10 µg/nM/kg | 25.2 nM | 200 ± 13 |  | incomplete tracer displacement | 
4 | Hexanoyl-HSDAVFTDNYTRLLAKLALQKYLQSIKNKRYGGPSSGAPPPS [Agonist P119] | 0.0912 nM | 133 ± 18 | 32 | 0.618 nM | 47 |  |  |  | 29.2 nM |  | 2.9 nM | 207 ± 13 |  | incomplete tracer displacement | 
5 | Hexanoyl-HSDAVFTDNYTRLR[Aib]QVAAK[Aib]YLQSIKNKRYGGPSSGAPPPS [Agonist P264] |  |  |  |  |  | 0.06 nM·h | 0.96 nM | 1.3 min |  | 5.1 µg/nM/kg |  |  | 0.1 nM |  | 
6 | H-MHSDAVFTDNYTRLRKQVAAKKYLQSIKNKRYGGPSSGAPPPS [Agonist P104] |  | 129 ± 19 | 184 |  | 977 |  |  |  |  |  |  | 195 ± 18 |  | incomplete tracer displacement | EC50 [1]: 1.01 nM; IC50 [2]: 1.8 nM; IC50 [4]: 1760 nM; EC50 [6]: 186 nM
